Source: PubChem BioAssay AID720588 (Broad Institute, 2013)
Calls of active or inactive are those of the source.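 How the source made its calls: active means fitted curve falls past a set limit of signal loss at no more than twice the top dose; inconclusive means flat fit between 30 and 70% signal loss, or poor fit; inactive means signal rise, flat within 30%, or crossing too high.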

Test system: not listed separately
Experiment: HEK293T cell cytotoxicity, dose response, cytotoxicity control, CellTiter-Glo luminescence, cherry-pick, set 3 (AID 720588);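 on AC35: potency for luminescence loss meaning cytotoxic compounds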
Conditions: HEK293T viability, CellTiter-Glo ATP luminescence, 72 h; at 23.5 µM (top of the series)

Structure (SMILES)	activity change, negative = cytotoxicity
O=S(=O)(c1ccc(F)cc1)N1C[C@H]2[C@@H](c3ccccc31)[C@H](CO)N2Cc1ccccc1Cl	-5.62% (inactive)
CCCNC(=O)N1[C@H](C#N)[C@H](c2ccc(C#Cc3cccc(F)c3)cc2)[C@H]1CO	-0.501% (inactive)

Same assay, conditions: HEK293T viability, CellTiter-Glo ATP luminescence, 72 h; at 26 µM (top of the series)

Structure (SMILES)	activity change, negative = cytotoxicity
COc1ccc(/C=C2/SC(=S)N(CCCC(=O)Nc3ccccc3C(=O)O)C2=O)cc1	-21% (inactive)
COc1ccc(/C=N/Nc2ccc(C(=O)O)cc2)cc1Br	-6.35% (inactive)
CCNC(=O)c1cccc(S(=O)(=O)N2CCCCCC2)c1	-6.96% (inactive)
Cc1ccc(C(CC(=O)O)Nc2nc(N3CCOCC3)nc(N3CCOCC3)n2)cc1 (configuration not stated)	25.6% (inactive)
CCOc1ccc(C(c2c(NC(=O)c3ccccc3)sc(C)c2C)N2CCN(CCO)CC2)cc1 (configuration not stated)	-15.2% (inactive)
N#CC1C=Cc2c(ccc3ccccc23)N1C(=O)c1ccccc1 (configuration not stated)	-20.1% (inactive)
CC(=O)Nc1ccc(OCC(=O)N(CC(C)C)C2CCS(=O)(=O)C2)cc1 (configuration not stated)	10.7% (inactive)
CC(C)(C)c1ccc(Oc2ccc(NC(=O)c3ccccc3C(=O)O)cn2)cc1	16.5% (inactive)
CCCCN=C(NNc1ccc(Br)cc1)C(=O)OCC	-39.4% (inactive)
Nc1ccc(-c2cc3ccccc3oc2=O)cc1	-22% (inactive)
N#C[C@H]1N[C@H](CO)[C@H]1c1ccc(C#Cc2ccc(F)cc2)cc1	-13% (inactive)
Cc1sc2nc(CN3CCC(C)CC3)nc(Cl)c2c1C	5.44% (inactive)
Cc1c(CC(=O)NCCCC(=O)O)c(=O)oc2cc3c(cc12)CCC(C)(C)O3	-63.2% (inactive)
COc1ccc(CCCNC(=O)C2Cc3c(-c4ccc5c(c4)OCO5)ccnc3O2)cc1 (configuration not stated)	-7% (inactive)
COC(=O)C[C@@H]1CC[C@@H]2[C@H](COc3ccc(NC(=O)c4cc(F)cc(F)c4)cc3C(=O)N2C)O1	-1.07% (inactive)
COc1ccccc1-c1cn(CC[C@H]2CC[C@@H](NC(=O)C3CCCC3)[C@@H](CO)O2)nn1	0.512% (inactive)
Nc1ccc(-c2cc3ccccc3c(=O)o2)cc1	-6.69% (inactive)
CCCN1C(=O)/C(=C/c2nc3ccccc3c(=O)[nH]2)c2ccccc21	-9.06% (inactive)
Cc1[nH][nH]c(=O)c1C(c1c(C)[nH][nH]c1=O)c1cn(Cc2ccc(Cl)c(Cl)c2)c2ccccc12	-16% (inactive)

Structure (SMILES)	activity change, negative = cytotoxicity
CN(C(=O)COC(=O)c1cc(-c2ccccc2Cl)nc2ccccc12)C1CCS(=O)(=O)C1 (configuration not stated)	-26.1% (inactive)
COc1cc(/C=N/NS(=O)(=O)c2ccc3ccccc3c2)ccc1OCc1ccc(C(=O)O)cc1	-17.5% (inactive)
CCOc1ccc2nc(NC3=NC(c4ccc(OC)cc4)CC(=O)N3)nc(C)c2c1 (configuration not stated)	-23.2% (inactive)
C[C@@H]1CN([C@H](C)CO)C(=O)c2cc(C#CCc3ccccc3)cnc2O[C@@H]1CN(C)Cc1cccc(F)c1	-3.37% (inactive)
COc1ccc(/C=C/C(=O)c2cc(F)ccc2OC(=O)c2ccccc2OC)cc1OC	-12.6% (inactive)
CN(C)c1ccc(N=Nc2ccc(C(=O)O)cc2)cc1	-1.83% (inactive)
CC(NC(=O)c1ccco1)c1nc(-c2ccc(C(C)(C)C)cc2)no1 (configuration not stated)	-23% (inactive)
CCc1ccc(/C=C2\SC(=S)N(CCC(=O)Nc3cc(C)on3)C2=O)cc1	5.29% (inactive)
O=C1C(=O)N(CCS(=O)(=O)c2ccccc2)c2ccc(Cl)cc21	-2.19% (inactive)
COc1cc(OC)cc(-c2cc3nc(C)c(CCC(=O)O)c(C)n3n2)c1	11.4% (inactive)
OCC1OC(n2cnc3c(NCc4ccco4)ncnc32)C(O)C1O (configuration not stated)	-35.2% (inactive)
CCCn1c(C)cc(C(=O)CN2C(=O)c3ccccc3S2(=O)=O)c1C	4.1% (inactive)
Cc1ccc(C(=O)CN2C(=O)c3ccccc3S2(=O)=O)cc1	-1.54% (inactive)
Cc1cc(Br)ccc1N=C1C(=O)Nc2ccccc21	-16.9% (inactive)
COC(=O)COc1ccc(-c2nccc(-c3ccccn3)n2)cc1	19.3% (inactive)
CC(C)CC(NC(=O)c1cccs1)c1nnc(SCc2ccc(Cl)c(Cl)c2)n1C (configuration not stated)	-6.67% (inactive)
O=C(NCc1ccccn1)c1ccc(CNS(=O)(=O)c2cccc(Cl)c2)cc1	-15.8% (inactive)
C[C@H]1CCCCO[C@H](CN(C)Cc2ccc(C(F)(F)F)cc2)[C@@H](C)CN([C@@H](C)CO)C(=O)c2cc(NC(=O)Nc3ccccc3)ccc2O1	0.212% (inactive)
Nc1cc2c(cc1Br)[nH]c(=O)c1ccccc12	17.5% (inactive)

Test system: HEK293T viability, CellTiter-Glo ATP luminescence, 72 h
Experiment: as above
Conditions: not given

Structure (SMILES)	AC35 [µM]
OC[C@H]1[C@@H](c2ccc(C#CC3CCCC3)cc2)[C@@H]2CN(CCC(F)(F)F)CCCCN12	10.4
COc1cccc(-c2cccc(-c3nc(C(=O)NCC(F)(F)F)cc4c3[C@H](CCO)N([S@@](=O)C(C)(C)C)C4)c2)c1	23.5
